Test results reported in ChEMBL document CHEMBL5728053, “Dihydropyrrolopyridine inhibitors of ROR-gamma” (2020).

Target: T1, Nuclear receptor ROR-gamma (Homo sapiens, UniProt P51449)
T1 sequence (P51449 whole entry): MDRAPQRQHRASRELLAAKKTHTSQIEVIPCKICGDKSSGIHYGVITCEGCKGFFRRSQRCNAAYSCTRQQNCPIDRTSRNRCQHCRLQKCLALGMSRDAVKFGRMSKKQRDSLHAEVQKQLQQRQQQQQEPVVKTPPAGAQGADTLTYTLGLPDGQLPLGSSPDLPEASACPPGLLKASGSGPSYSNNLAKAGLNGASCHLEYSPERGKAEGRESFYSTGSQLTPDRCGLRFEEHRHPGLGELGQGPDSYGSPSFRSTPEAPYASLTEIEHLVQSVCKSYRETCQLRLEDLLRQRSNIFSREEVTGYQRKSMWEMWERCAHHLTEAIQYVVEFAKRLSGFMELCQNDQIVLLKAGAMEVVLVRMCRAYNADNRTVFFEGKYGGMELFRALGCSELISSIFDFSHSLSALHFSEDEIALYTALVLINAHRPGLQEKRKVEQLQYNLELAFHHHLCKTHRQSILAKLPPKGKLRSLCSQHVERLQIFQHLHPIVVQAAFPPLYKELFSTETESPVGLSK
Assay: RORgammat 5xRORE Assay in Jurkat Cells (Assay 2) : Compounds of the present invention were tested for RORγ inverse agonist activity in a cell-based, transcriptional activity assay. […] (Promega, Cat. # N1021) using KpnI and HindIII restriction sites. […] Luciferase activity in the conditioned supernatants was determined with NanoGlo® assay reagents (Promega, Cat. # N1130).

IC50: 100 to 1000 nM
Structure (SMILES): CCS(=O)(=O)c1ccc(CNC(=O)c2cnc3c(c2)C(=O)N(Cc2ccc(Cl)cc2)[C@H]3C(C)C)cc1
